The source of these data is patent US8198456B2, “Dihydropyridine derivatives as useful as protein kinase inhibitors” (Bayer Intellectual Property GmbH, priority 2006, dated 2012).

Where a name gives a salt, the structure may show the parent alone. Some results are limits rather than exact numbers.

The test deals with T1, recombinant human c-MET kinase enzyme domain (Homo sapiens, UniProt P08581).
T1 construct: Recombinant c-Met kinase domain (amino acids 960-1390); His (N); made in house; host or cells: baculovirus expression system (insect cells; SF21 is named only for the alternative format)
T1 sequence (P08581 960-1390): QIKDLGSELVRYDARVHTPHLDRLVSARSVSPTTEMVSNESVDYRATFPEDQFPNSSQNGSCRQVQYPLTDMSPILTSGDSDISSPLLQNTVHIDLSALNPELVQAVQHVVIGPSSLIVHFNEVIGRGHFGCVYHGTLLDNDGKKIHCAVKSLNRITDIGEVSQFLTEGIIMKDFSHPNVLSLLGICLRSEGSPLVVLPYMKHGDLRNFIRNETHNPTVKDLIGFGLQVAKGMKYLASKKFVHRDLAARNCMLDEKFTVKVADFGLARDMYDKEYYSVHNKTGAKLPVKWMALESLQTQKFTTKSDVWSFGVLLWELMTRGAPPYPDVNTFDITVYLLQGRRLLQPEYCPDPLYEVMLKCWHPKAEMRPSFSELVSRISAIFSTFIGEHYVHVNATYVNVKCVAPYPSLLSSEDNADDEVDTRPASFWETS
As to the kind of experiment: c-MET receptor tyrosine kinase Homogeneous Time Resolved Fluorescence assay (HTRF). The class given is biochemical. To be noted: Biological Example 1 and/or Biological Example 2. The procedure, abridged: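 His-tagged c-Met kinase domain (aa 960-1390, baculovirus) phosphorylated biotinylated poly-Glu-Tyr (37 nM) with 20 μM ATP in HEPES pH 7.4, Mg/Mn, DTT, 1% DMSO, 20 min at ambient temperature, EDTA-stopped. HTRF read (PT66-Eu/streptavidin-XL665, 665/620 nm ratio) after 4 h; IC50 from eight 1:3.16 dilutions.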
As for `CC1=C(C#N)C(c2ccc3[nH]nc(C)c3c2)C(C#N)=C(C)N1` [compound 81, 1,4-dihydro-2,6-dimethyl-4-(3-methyl-1H-indazol-5-yl)-3,5-pyridinedicarbonitrile], the half-maximal inhibitory concentration (IC50) was under 100 nM. For `CC1=C(C#N)C(c2ccc3[nH]nc(NCc4ccc(C(=O)O)cc4)c3c2)C(C#N)=C(C)N1` [compound 136, 4-[[[5-(3,5-dicyano-1,4-dihydro-2,6-dimethyl-4-pyridinyl)-1H-indazol-3-yl]-amino]methyl]-benzoic acid], the IC50 was under 100 nM. Next, `CC1=C(C#N)C(c2cccc(C(=O)Nc3ccccn3)c2)C(C#N)=C(C)N1` [compound 43, 3-(3,5-dicyano-1,4-dihydro-2,6-dimethyl-4-pyridinyl)-N-2-pyridinyl-benzamide]: under 100 nM; `CC1=C(C#N)C(c2cccc(C(=O)Nc3ccc(CO)cn3)c2)C(C#N)=C(C)N1` [compound 72, 3-(3,5-dicyano-1,4-dihydro-2,6-dimethyl-4-pyridinyl)-N-[5-(hydroxymethyl)-2-pyridinyl]-benzamide]: 100 to 500 nM.

`CC1=C(C#N)C(c2ccc3[nH]ncc3c2)C(C#N)=C(c2cccc(N)c2)N1` (centres unmarked) [compound 252, 2-(3-aminophenyl)-1,4-dihydro-4-(1H-indazol-5-yl)-6-methyl-3,5-pyridinedicarbonitrile]: the IC50 was under 100 nM.

Regarding `CC1=C(C#N)C(c2ccc3c(c2)c(N)nn3C(=O)OC(C)(C)C)C(C#N)=C(C)N1` [compound 92, 3-amino-5-(3,5-dicyano-1,4-dihydro-2,6-dimethyl-4-pyridinyl)-1H-indazole-1-carboxylic acid tert-butyl ester], the concentration for half-maximal inhibition (IC50) was 100 to 500 nM. The result for `COC(=O)c1cccc(C2C(C#N)=C(C)NC(C3CCCN(C(C)=O)C3)=C2C#N)c1` (centres unmarked) [compound 229, 3-[2-(1-acetyl-3-piperidinyl)-3,5-dicyano-1,4-dihydro-6-methyl-4-pyridinyl]-benzoic acid, methyl ester] reads 100 to 500 nM; that for `CNC(=O)c1cccc(C2C(C#N)=C(C)NC(C)=C2C#N)n1` [compound 189, 3′,5′-dicyano-1′,4′-dihydro-N,2′,6′-trimethyl-[2,4′-bipyridine]-6-carboxamide], 500 to 2500 nM. For `CC1=C(C#N)C(c2ccc3[nH]nc(C)c3c2)C(C#N)=C(C)N1C` [compound 306, 1,4-dihydro-1,2,6-trimethyl-4-(3-methyl-1H-indazol-5-yl)-3,5-pyridinedicarbonitrile], the IC50 is under 100 nM. Next, `CC1=C(C#N)C(c2ccc3[nH]nc(-c4ccncc4)c3c2)C(C#N)=C(C)N1` [94.2, 1,4-dihydro-2,6-dimethyl-4-[3-(4-pyridinyl)-1H-indazol-5-yl]-3,5-pyridinedicarbonitrile, acetic acid salt]: under 100 nM; `CCOC(=O)CN1C(C)=C(C#N)C(c2ccc3[nH]ncc3c2)C(C#N)=C1C` [compound 290, 3,5-dicyano-4-(1H-indazol-5-yl)-2,6-dimethyl-1(4H)-pyridineacetic acid ethyl ester]: under 100 nM; `CC1=C(C#N)C(c2ccc3[nH]nc(C#CCN(C)C)c3c2)C(C#N)=C(C)N1` [compound 139, 4-[3-[3-(dimethylamino)-1-propynyl]-1H-indazol-5-yl]-1,4-dihydro-2,6-dimethyl-3,5-pyridinedicarbonitrile]: under 100 nM.

`CNC(=O)c1cccc(C2C(C#N)=C(C)NC(c3ccc(O)cc3)=C2C#N)c1` (centres unmarked) [compound 239, 3-[3,5-dicyano-1,4-dihydro-2-(4-hydroxyphenyl)-6-methyl-4-pyridinyl]-N-methyl-benzamide]: the 50% inhibitory concentration (IC50) fell in the range of 500 to 2500 nM. The result for `CC1=C(C#N)C(c2ccc3c(c2)c(NCCO)nn3C(=O)OC(C)(C)C)C(C#N)=C(C)N1` [compound 119, 5-(3,5-dicyano-1,4-dihydro-2,6-dimethyl-4-pyridinyl)-3-[(2-hydroxyethyl)-amino]-1H-indazole-1-carboxylic acid, 1,1-dimethylethyl ester] reads under 100 nM; that for `CC1=C(C#N)C(c2ccc3[nH]ncc3c2)C(C#N)=C(C)N1` [compound 80, 1,4-dihydro-4-(1H-indazol-5-yl)-2,6-dimethyl-3,5-pyridinedicarbonitrile], under 100 nM; that for `CC1=C(C#N)C(c2cccc(C(=O)NCCCn3ccnc3)c2)C(C#N)=C(c2cccc(N)c2)N1` (centres unmarked) [compound 246, 3-[2-(3-aminophenyl)-3,5-dicyano-1,4-dihydro-6-methyl-4-pyridinyl]-N-[3-(1H-imidazol-1-yl)propyl]-benzamide], 100 to 500 nM. Next, `CC1=C(C#N)C(c2cccc(C(=O)NCCc3ccncc3)c2)C(C#N)=C(C)N1` [compound 23, 3-(3,5-dicyano-1,4-dihydro-2,6-dimethyl-4-pyridinyl)-N-[2-(4-pyridinyl)ethyl]-benzamide]: 500 to 2500 nM. Next, `CC1=C(C#N)C(c2cccc(C(=O)NCCCn3ccnc3)c2)C(C#N)=C(C)N1` [compound 32, 3-(3,5-dicyano-1,4-dihydro-2,6-dimethyl-4-pyridinyl)-N-[3-(1H-imidazol-1-yl)propyl]-benzamide]: 100 to 500 nM; `CC1=C(C#N)C(c2ccc3[nH]nc(-c4ccon4)c3c2)C(C#N)=C(C)N1` [compound 175, 1,4-dihydro-4-[3-(3-isoxazolyl)-1H-indazol-5-yl]-2,6-dimethyl-3,5-pyridinedicarbonitrile]: under 100 nM. Turning to `CC1=C(C#N)C(c2ccc3[nH]ncc3c2)C(C#N)=C(c2ccc(N3CCOCC3)nc2)N1` (centres unmarked) [compound 271, 1,4-dihydro-4-(1H-indazol-5-yl)-6-methyl-6′-(4-morpholinyl)-[2,3′-bipyridine]-3,5-dicarbonitrile], the 50% inhibitory concentration (IC50) is under 100 nM. The result for `CC1=C(C#N)C(c2ccc3[nH]nc(NCc4ccc([N+](=O)[O-])cc4)c3c2)C(C#N)=C(C)N1` [compound 127, 1,4-dihydro-2,6-dimethyl-4-[3-[[(4-nitrophenyl)methyl]amino]-1H-indazol-5-yl]-3,5-pyridinedicarbonitrile] reads 500 to 2500 nM; that for `CC1=C(C#N)C(c2ccc3[nH]nc(N)c3c2)C(C#N)=C(C)N1CCO` [compound 299, 4-(3-amino-1H-indazol-5-yl)-1,4-dihydro-1-(2-hydroxyethyl)-2,6-dimethyl-3,5-pyridinedicarbonitrile], under 100 nM. Next, `CC1=C(C#N)C(c2ccc3[nH]ncc3c2)C(C#N)=C(c2ccnc(Cl)c2)N1` (centres unmarked) [compound 276, 2′-chloro-1,4-dihydro-4-(1H-indazol-5-yl)-6-methyl-[2,4′-bipyridine]-3,5-dicarbonitrile]: under 100 nM.

For `COC(=O)c1ccc(C2=C(C#N)C(c3ccc4[nH]ncc4c3)C(C#N)=C(C)N2)cc1` (centres unmarked) [compound 257, 4-[3,5-dicyano-1,4-dihydro-4-(1H-indazol-5-yl)-6-methyl-2-pyridinyl]-benzoic acid methyl ester], the IC50 was under 100 nM. Next, `CC1=C(C#N)C(c2ccc3[nH]nc(N)c3c2)C(C#N)=C(C)N1C` [compound 288, 4-(3-amino-1H-indazol-5-yl)-1,4-dihydro-1,2,6-trimethyl-3,5-pyridinedicarbonitrile]: under 100 nM; `CNC(=O)c1cccc(C2C(C#N)=C(C)NC(C)=C2C#N)c1` [compound 22, 3-(3,5-dicyano-1,4-dihydro-2,6-dimethyl-4-pyridinyl)-N-methyl-benzamide]: 100 to 500 nM; `CC1=C(C#N)C(c2ccc3[nH]ncc3c2)C(C#N)=C(c2ccc(N3CCOCC3)c(F)c2)N1` (centres unmarked) [compound 272, 2-[3-fluoro-4-(4-morpholinyl)phenyl]-1,4-dihydro-4-(1H-indazol-5-yl)-6-methyl-3,5-pyridinedicarbonitrile]: under 100 nM.

For `CNC(=O)Nc1n[nH]c2ccc(C3C(C#N)=C(C)NC(C)=C3C#N)cc12` [compound 147, N-[5-(3,5-dicyano-1,4-dihydro-2,6-dimethyl-4-pyridinyl)-1H-indazol-3-yl]-N′-methyl-urea], the IC50 was under 100 nM.

Turning to `CC1=C(C#N)C(c2cccc(C(=O)Nc3cccnc3)c2)C(C#N)=C(C)N1` [compound 21, 3-(3,5-dicyano-1,4-dihydro-2,6-dimethyl-4-pyridinyl)-N-3-pyridinyl-benzamide], the half-maximal inhibitory concentration (IC50) lay in the range of 100 to 500 nM. The result for `CC1=C(C#N)C(c2ccc3[nH]nc(-c4cnco4)c3c2)C(C#N)=C(C)N1` [compound 177, 1,4-dihydro-2,6-dimethyl-4-[3-(5-oxazolyl)-1H-indazol-5-yl]-3,5-pyridinedicarbonitrile] reads under 100 nM; that for `CC1=C(C#N)C(c2cccc(C(=O)Nc3ccc(C(F)(F)F)cn3)c2)C(C#N)=C(C)N1` [compound 60, 3-(3,5-dicyano-1,4-dihydro-2,6-dimethyl-4-pyridinyl)-N-[5-(trifluoromethyl)-2-pyridinyl]-benzamide], 500 to 2500 nM. With `COC(=O)c1cccc(C2C(C#N)=C(C)NC(c3cccc([N+](=O)[O-])c3)=C2C#N)c1` (centres unmarked) [compound 232, 3-[3,5-dicyano-1,4-dihydro-2-methyl-6-(3-nitrophenyl)-4-pyridinyl]-benzoic acid, methyl ester], the IC50 lay within 500 to 2500 nM. Next, `CC1=C(C#N)C(c2ccc3[nH]nc(/C(C)=N/O)c3c2)C(C#N)=C(C)N1` [compound 160, 1,4-dihydro-4-[3-[(1E)-1-(hydroxyimino)ethyl]-1H-indazol-5-yl]-2,6-dimethyl-3,5-pyridinedicarbonitrile]: under 100 nM; `CC1=C(C#N)C(c2cnc3[nH]ncc3c2)C(C#N)=C(C)N1` [compound 204, 1,4-dihydro-2,6-dimethyl-4-(1H-pyrazolo[3,4-b]pyridin-5-yl)-3,5-pyridinedicarbonitrile]: under 100 nM; `CC1=C(C#N)C(c2ccc3[nH]nc(N)c3c2)C(C#N)=C(C)N1` [compound 82, 4-(3-amino-1H-indazol-5-yl)-1,4-dihydro-2,6-dimethyl-3,5-pyridinedicarbonitrile]: under 100 nM.
